# From patent publication US7741521B2, “Inhibition of bid-induced cell-death using small organic molecules” (The Burnham Institute, priority 2004, dated 2010)
# Experiments:
# [1] = system: primary hippocampal neurons; experiment: Glutamate-induced cell death in primary hippocampal neurons; format: cell-based
# Experimental: Primary cultures were obtained from embryonic day 18 rats and cultured in Neurobasal medium (Invitrogen, Karlsruhe, Germany) supplemented with 5 mM HEPES, 1.2 mM glutamine, B27 supplement (Invitrogen, 20 ml/l) and gentamicin (0.1 mg/ml) as described in the art. Glutamate (20 μM) was added in 9-10 day old cultures in EBSS medium (6800 mg/L NaCl, 400 mg/L KCl, 264 mg/L CaCl2×2H2O, 200 mg/L MgCl2×7H2O, 2200 mg/L NaHCO3, 140 mg/L NaH2PO4×H2O, 10 mM glucose, pH 7.2).
# Neuronal cell death was quantified after staining the nuclei with the DNA-binding fluorochrome Hoechst 33258 (Molecular Probes) or by the MTT assay. Immunocytochemistry was performed as described in the art, with a polyclonal anti-AIF antibody (sc-9416, Santa Cruz; 1:200) followed by incubation a biotinylated anti-goat IgG antibody (1:200) Vector Laboratories) and Oregon Green-streptavidin (Molecular Probes). […]
# To assess whether the compounds of the present invention would also prevent neuronal cell death in primary cultures, a number of cell-based assays were performed. […] Twenty-four hours later, apoptotic nuclei were quantified after staining with Hoechst 33342. In a separate experiment (FIG. 11C), the protective effect of Compound I against glutamate-induced cell death was quantified by the MTT assay. […]
# [2] = system: HeLa cells transfected with a plasmid encoding tBID; experiment: tBID-induced cell death in transfected cells; format: cell-based; conditions: 50 µM; without compound 80±5%
# Experimental: (§1) HEK 293T cells were transfected with 0.5 μg of plasmids encoding either GFP or GFP-tBID in 12 wells plate. After 3 hours transfection, various compounds were added in DMSO to the media. After 20 hours of further incubation, cells were collected and either lysed for caspase assays or fixed and stained with DAPI for determination of apoptosis^50. For caspase activity assays, 293T cells were lysed in lysis buffer (10 mM Hepes, pH 7.4, 142.2 mM KCl, 5 mM MgCl2, 0.5 mM EDTD, 0.5% NP-40) containing a protease inhibitor mixture (Roche Molecular Biochemicals). The lysates were normalized for protein concentration (10 μg), then incubated with 100 μM DEVD-AFC. Enzyme activity was determined by the release of AFC-fluorescence and Vmax was calculated (mean±Std. dev; n=3). For DAPI staining, 293T cells were fixed, washed with PBS, and stained with 0.1 mg/ml DAPI. The percentage of GFP-positive cells with apoptotic morphology (fragment nuclei or condensed chromatin) was determined (mean±Std. dev; n=3).
# (§2) Compound II was also evaluated for its ability to inhibit BID-induced apoptosis in cell; for these experiments, HeLa cells were transfected with a plasmid encoding tBID, and effector caspase activity was measured in cell lysates 24 hours later. […] Moreover, tBID-induced cell death, as measured by caspase-3 activity, was reduced from 80±5% to 35±5% by 50 µM of compound II (FIG. 6E). […]
# [3] = system: HeLa cells transfected with a plasmid encoding tBID; experiment: Effector caspase activity in lysates of tBID-transfected cells; format: cell-based
# Experimental: as §1, §2
# [4] = molecular target: T1, caspase-3 (Homo sapiens, UniProt P42574); experiment: Caspase-3 in vitro assay; format: biochemical; conditions: concentrations used in the cellular assay
# T1 sequence (P42574 29-175 limits assumed): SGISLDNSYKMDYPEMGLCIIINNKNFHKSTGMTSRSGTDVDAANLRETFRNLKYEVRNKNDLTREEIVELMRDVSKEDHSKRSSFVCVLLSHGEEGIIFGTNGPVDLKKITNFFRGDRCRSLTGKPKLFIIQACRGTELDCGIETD
# T1 sequence (P42574 176-277 limits assumed): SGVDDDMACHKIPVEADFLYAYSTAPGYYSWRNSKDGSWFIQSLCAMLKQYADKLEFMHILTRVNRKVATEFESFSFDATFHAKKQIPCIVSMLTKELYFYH
# [5] = molecular target: T2, tBID (Mus musculus, UniProt P70444); experiment: tBID association with isolated mitochondria (immunoblot with BID antibody); format: biochemical; conditions: at 20 μM
# T2 construct: tBID was produced by cleavage of purified BID with caspase-8, as known in the art; made in house; host or cells: E. coli BL21 (BID), then cleaved in vitro with caspase-8
# T2 sequence (P70444 60-195 limits assumed): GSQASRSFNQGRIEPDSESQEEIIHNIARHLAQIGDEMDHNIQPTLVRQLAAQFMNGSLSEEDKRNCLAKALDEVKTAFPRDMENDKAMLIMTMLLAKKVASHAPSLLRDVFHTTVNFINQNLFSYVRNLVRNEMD
# T2 sequence (P70444 1-59 partner limits assumed): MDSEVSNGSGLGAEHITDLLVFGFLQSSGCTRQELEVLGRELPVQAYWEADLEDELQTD
# Experimental: Compounds II-IX were tested in vitro for their ability to inhibit BID-mediated release of Smac using mitochondria isolated from HeLa cells (FIG. 6A). The first lane represents mitochondria incubated without tBID. All others received 100 ng tBID without or with compounds. Each compound was tested at a concentration of 50 μM. […] To preliminarily investigate the mechanism by which compound II reduces Smac-release from isolated mitochondria, the tBID protein was treated with different concentrations of BI-6C9, after which it was incubated with mitochondria, followed by analysis of the bound and unbound fractions by immunoblotting using BID antibody. The concentration of mitochondria-bound tBID diminished in response to increasing concentrations of compound II.
# [6] = molecular target: caspase-8 (Homo sapiens, UniProt Q14790); experiment: Caspase-8 mediated BID cleavage (SDS page); format: biochemical; conditions: concentrations used in the cellular assay
# caspase-8, sequence (Q14790 217-374 limits assumed, species assumed): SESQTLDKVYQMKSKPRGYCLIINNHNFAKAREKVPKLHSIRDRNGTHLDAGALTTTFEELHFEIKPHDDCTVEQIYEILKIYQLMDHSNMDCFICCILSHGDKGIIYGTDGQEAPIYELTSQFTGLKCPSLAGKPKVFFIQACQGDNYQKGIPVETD
# caspase-8, sequence (Q14790 385-479 limits assumed, species assumed): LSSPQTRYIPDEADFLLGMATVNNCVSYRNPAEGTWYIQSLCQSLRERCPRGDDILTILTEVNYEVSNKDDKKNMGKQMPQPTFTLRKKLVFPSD
SMILES,"concentration range of dose-dependent neuroprotective effect ([1]; 1 hour pretreatment, glutamate 20 μM, 24 hours, Hoechst 33342 apoptotic nuclei)",toxicity to primary hippocampal neurons ([1]; at higher concentrations (20 μM)),tBID-induced cell death [2],"reduction of caspase-3 activity in tBID-transfected cells ([3]; 50 µM, 24 hours after transfection)",caspase activity in tBID-transfected cells ([3]; 100 µM),inhibition of caspase-3 [4],inhibition of tBID association with isolated mitochondria [5],effect on caspase-8 mediated BID cleavage [6]
"Nc1ccc(Sc2ccc(NC(=O)CNC(=O)c3ccc(O)cc3O)cc2)cc1 [Compound I, N-((4-(4-aminophenylthio)phenylcarbamoyl)methyl)-2,4-dihydroxybenzamide]",0.2 to 2 µM,some toxicity,–,–,–,–,–,–
"COc1ccc(S(=O)(=O)NCCCC(=O)Nc2ccc(Sc3ccc(N)cc3)cc2)cc1 [Compound II, N-[4-(4-amino-phenylsulfanyl)-phenyl]-4-(4-methoxy-benzenesulfonylamino)-butyramide]",–,–,35±5%,~4 fold,totally blocked,does not inhibit,effective,does not impair
